The results in this text go back to ChEMBL document CHEMBL1140846, “Convenient QSAR model for predicting the complexation of structurally diverse compounds with beta-cyclodextrins” (Bioorg Med Chem, 2009).

The data set can be described thus: Binding affinity to beta cyclodextrin.

`CCc1ccc(O)cc1`: the “log Ks” value was found to be 2.69. Turning to `Oc1cccc(I)c1`, the “log Ks” value is given as 2.93. Consider `CC(=O)Oc1cccc(C#N)c1`, for which the “log Ks” value is reported as 1.49.

With `CCCCc1ccc(O)cc1`, the “log Ks” value was 3.97. Consider `CC=O`, for which the “log Ks” value was -0.64. With `CNc1ccccc1`, the “log Ks” value amounted to 2.12. Regarding `Oc1cccc(Br)c1`, the “log Ks” value worked out at 2.51. Next, `Brc1ccc(Br)cc1`: 2.97; `CC(C)(C)c1cccc(O)c1`: 4.41. Next, `C#Cc1ccccc1`: 2.36; `CCC(C)c1ccc(O)cc1` (configuration not stated): 4.18; `CC(C)c1ccc(O)cc1`: 3.58. As for `Oc1cc(Cl)cc(Cl)c1`, the figure is 2.07; as for `CCCc1ccc(O)cc1`, 3.55.

In the case of `CN(C)c1ccccc1`, the “log Ks” value was 2.36. In the case of `CC(=O)c1cccc(O)c1`, the “log Ks” value worked out at 2.06. As for `COc1ccc(OC(C)=O)cc1`, the figure is 2.45.

As for `Oc1cccc(Cl)c1`, the “log Ks” value was 2.28.

For `CCCc1cccc(OC(C)=O)c1`, the “log Ks” value is listed as 3.28. As to `CC(C)C(C)O` (configuration not stated), the “log Ks” value was 1.92. Turning to `CC(C)Cc1cccc(O)c1`, the “log Ks” value was found to be 4.21. For the molecule `CCCCCc1ccc(OC(C)=O)cc1`, the “log Ks” value worked out at 3.8. `CC(=O)Oc1cccc(C)c1`: the “log Ks” value came out at 2.21. Consider `CC(C)CC(C)O` (configuration not stated), for which the “log Ks” value amounted to 2.04. In the case of `CC(C)c1cccc(O)c1`, the “log Ks” value is 3.44. Regarding `CC(=O)Oc1ccc(Cl)cc1`, the “log Ks” value is given as 2.5. Consider `Oc1cc(Br)cc(Br)c1`, for which the “log Ks” value is 2.56.

As to `CCCC(C)(C)O`, the “log Ks” value is 1.99. As to `CCOc1ccc(OC(C)=O)cc1`, the “log Ks” value was found to be 2.54. For `CCC(C)CO` (configuration not stated), the “log Ks” value came out at 2.08. Take `CC(=O)Oc1ccc(F)cc1`: the “log Ks” value was 2.11.

For `Ic1ccc(I)cc1`, the “log Ks” value came out at 3.17.

Regarding `CCNc1ccccc1`, the “log Ks” value stood at 2.34. Next, `CC(=O)Oc1cccc(F)c1`: 1.91; `CC(=O)Oc1cccc(Cl)c1`: 2.44.

For the molecule `CC(=O)Oc1ccc(Br)cc1`, the “log Ks” value turned out to be 2.68. In the case of `CC(=O)Oc1cccc(Br)c1`, the “log Ks” value is recorded as 2.67. `CCC(=O)c1cccc(O)c1`: the “log Ks” value worked out at 2.61. Next, `O=C(O)CC1CC2CCC1C2` (configuration not stated): 3.59. On to `CC(C)Oc1ccc(O)cc1`, for which the “log Ks” value is on record as 2.86. Turning to `Cc1cccc(/C=C/C(=O)O)c1`, the “log Ks” value worked out at 2.93. Turning to `CC(=O)Oc1cccc(I)c1`, the “log Ks” value amounted to 3.07.

In the case of `CCCc1ccc(OC(C)=O)cc1`, the “log Ks” value is listed as 3.15. With `CC(C)(C)CO`, the “log Ks” value came out at 2.71. For the molecule `CCOc1cccc(OC(C)=O)c1`, the “log Ks” value is on record as 2.49. As to `COc1cc(O)cc(OC)c1`, the “log Ks” value is on record as 2.34. In the case of `CCCCc1cccc(O)c1`, the “log Ks” value is listed as 3.76. With `CCC(C)c1cccc(O)c1` (configuration not stated), the “log Ks” value is 4.06. As to `CCCc1cccc(O)c1`, the “log Ks” value was 3.28. As for `CC(=O)Oc1ccc(C(C)C)cc1`, the figure is 2.88; as for `CCc1cccc(OC(C)=O)c1`, 2.68; as for `CC(=O)Oc1ccc(C)cc1`, 2.49. Regarding `CC(=O)Oc1ccc(I)cc1`, the “log Ks” value is on record as 3. For the molecule `CCC(C)(O)CC`, the “log Ks” value is 2.15. For `CCc1ccc(OC(C)=O)cc1`, the “log Ks” value was 2.83. As to `CCCCCCC(C)O` (configuration not stated), the “log Ks” value was found to be 3.13.

Take `Oc1ccc(F)cc1`: the “log Ks” value came out at 1.73. As for `Oc1ccc(I)cc1`, the “log Ks” value turned out to be 2.98. Turning to `O=[N+]([O-])c1ccc(Cl)cc1`, the “log Ks” value is given as 2.15.

With `Oc1cccc(F)c1`, the “log Ks” value turned out to be 1.7. In the case of `CCc1cccc(O)c1`, the “log Ks” value was 2.6.

Turning to `CCCCn1ccnc1`, the “log Ks” value amounted to 2.19.
